This is an account of results in patent publication EP0808832B1, “Fluorinated vitamin D3 analogs” (F. HOFFMANN-LA ROCHE AG, priority 1996, dated 1997).

Structures are written as SMILES. Values joined by “and” are separate entries in the source; they are usually repeats but may differ in a detail not shown here. Equal entries are not always repeated. Where two headings read alike, the source gives them in different places.

Series [1] has as its system rats are ovariectomized (Ovx). It counts as in vivo, rat. Conditions: for Whole Femur BMD: 3 to 6 weeks post-ovariectomy, right femur; for Urine Calcium/Creatinine 6th wk): 0.20 µg/kg once a day by mouth. An excerpt:
Three month old rats are ovariectomized (Ovx) and administered either 1,25-dihydroxy vitamin D3 (vit. D in Table) or one of the compounds of the present invention once a day by mouth starting at 3 weeks post-ovariectomy and continuing until final sacrifice at 6 weeks post-ovariectomy. Control groups, both sham (rats that were not ovariectomized) and Ovx, received vehicle only. Blood and urine samples were collected twice, at 4 weeks post-ovariectomy and again at the 6 week mark and the amount of serum and urine calcium was determined. The final femoral calcium determined upon sacrifice 6 weeks post- ovariectomy.
The bone mineral density (BMD) of the right femur was determined by using a High Resolution Software Package on a QDR-1000W Bone Densitometer™ (Hologic, Walthan, MA). The animals were scanned by placing them on a scanning block in a supine position such that the right leg was perpendicular to the main body and the tibia was perpendicular to the femur.
The increase in the bone mineral density and the amount of calcium in the urine and the serum for some of the compounds of this invention in this assay are given in the table below: […]

Series [2] deals with women with postmenopausal osteoporosis. Conditions: 0.25 microgram twice daily, after 3 years, mild to moderate disease, compared with elemental calcium 1000 mg/day; cited from earlier work.

Turning to `C=C1/C(=C\C=C2/CCC[C@]3(C)C([C@@H](C)C/C=C/C(C)(O)C(F)(F)F)=CC[C@@H]23)C[C@@H](O)C[C@@H]1F` (stereo partly drawn) [Cpd. 57, 1-α-Fluoro-25(RS)-hydroxy-16,23E-diene-26-trifluoro-20-epi-cholecalciferol], the Whole Femur BMD in series [1] (1.50 µg/kg once a day by mouth) amounted to 0.248 g/cm^2.

In the case of `C=C1/C(=C\C=C2/CCC[C@]3(C)[C@@H](C4(CC#CC(C)(C)O)CC4)CC[C@@H]23)C[C@@H](O)C[C@@H]1F` [Cpd. 58, 1-α-Fluoro-25-hydroxy-23-yne-20,21,28-cyclopropylcholecalciferol], the Whole Femur BMD in series [1] (5.00 µg/kg once a day by mouth) worked out at 0.236 g/cm^2.

As for `C=C1/C(=C\C=C2/CCC[C@]3(C)C([C@@H](C)CC#CC4(O)CCCC4)=CC[C@@H]23)C[C@@H](O)C[C@@H]1F` [Cpd. 59, 1-α-Fluoro-25-hydroxy-16-ene-23-yne-25,26,27-cyclopentyl-20-epi-cholecalciferol], in series [1] (2.00 µg/kg once a day by mouth), the Whole Femur BMD was found to be 0.233 g/cm^2. Consider `C=C1/C(=C\C=C2/CCC[C@]3(C)[C@@H](C4(C/C=C/C(O)(C(F)(F)F)C(F)(F)F)CC4)CC[C@@H]23)C[C@@H](O)C[C@@H]1F` [Cpd. 60, 1-α-Fluoro-25-hydroxy-23E-ene-26,27-hexafluoro-20,21,28-cyclopropyl-cholecalciferol], for which, in series [1] (0.10 µg/kg once a day by mouth), the Whole Femur BMD worked out at 0.242 g/cm^2. For the compound `C=C1/C(=C\C=C2/CCC[C@]3(C)[C@@H](C4(CC#CC(O)(C(F)(F)F)C(F)(F)F)CC4)CC[C@@H]23)C[C@@H](O)C[C@@H]1F` [Cpd. 61, 1-α-Fluoro-25-hydroxy-23-yne-26,27-hexafluoro-20,21,28-cyclopropyl-cholecalciferol], in series [1] (0.50 µg/kg once a day by mouth), the Whole Femur BMD is 0.243 g/cm^2. In the case of `C=C1/C(=C\C=C2/CCC[C@]3(C)[C@@H]([C@H](C)CCCC(C)(C)O)CC[C@@H]23)C[C@@H](O)C[C@@H]1O` [Vit D, 1,25-dihydroxy vitamin D3], the “Urine Calcium/Creatinine 6th wk)” value in series [1] is 1.35 mg/dL and 1.44 mg/dL; in series [1] (listed as Vit. D) it was 0.76 mg/dL and 1.44 mg/dL and 1.48 mg/dL. Moreover, in series [2], the “lower rate of new vertebral fractures” value was 3 fold.
